{"source": "patent US9770423B2", "about": "“Modulation sAPP, sAAPα and BDNF levels in individuals diagnosed with FXS and ASD” (Indiana University Research and Technology Corp., priority 2012, dated 2017)", "test_system": "sAPP", "assay": "plasma sAPP total by ELISA pre- and post-acamprosate", "assay_type": "in vivo, human", "from_the_text": "For sAPP levels, the Test plasma samples should be measured soon after collection. […] Just before assay, we thawed the test samples at a low temperature and mixed them completely. The plasma samples should be diluted appropriately with the EIA buffer, if needed. Duplicate measurement of test samples and standard are recommended. We used test samples in neutral pH range, and avoided the contaminations of organic solvent that may affect the measurement. Regarding the standard to quantify levels of sAPP, we prepared a series of sAPP standards in EIA buffer by serial dilutions, from 0.39 ng/mL to 25 ng/mL.\nThe ELISA plate was pre-coated with anti-human APP (R12A1) mouse IgG (IBL). First, the wells for reagent blank was determined, and 100 μL each of “EIA buffer” or 10 mM NaHCO3 buffer was added into the wells. Likewise, wells were assigned for test sample blank, test sample and diluted standard. Then 100 μL each of test sample blank, test sample and dilutions of standard was added into the appropriate wells. The test sample included the plasma sample from each subject, which may vary from 5-25 μl, made up to 100 μL with the EIA buffer. Each pre-coated plates was incubated overnight at 4° C. after covering it tightly with a plate lid. The plate was kept onto a rocker with gentle shaking. The next day, each well of the pre-coated plate was vigorously washed with wash buffer containing 0.05% Tween20 in phosphate buffer. This was performed by filling each well with wash buffer, leaving the pre-coated plate laid for 15-30 seconds and removing wash buffer completely from the plate by snapping. This procedure was repeated five times. After removing the remaining liquid from all wells completely by snapping the plate onto paper towel, we added 100 μL of labeled antibody solution into the wells of test samples, diluted standard and test sample blank. HRP labeled anti-Human APP (R101A4) mouse IgG from IBL was used. The plate was incubated for 30 minutes at 4° C. after covering it with plate lid, and then washed the plate 5 times in the same manner as described before. To develop the color, 100 μL of the Chromogen (TMB solution) was adding into the wells, and the plate was incubated for 30 minutes at room temperature in the dark.\nWhen the liquid started turning blue (by addition of the Chromogen), 100 μL of the Stop solution (1N H2SO4) was added into the wells. […] A plate reader was used and measurements were conducted at 450 nm against a reagent blank. […]\nThe first project enrolled 12 youth aged 5 to 17 years with fragile X syndrome and comorbid ASD in a 10-week open-label trial of acamprosate. […] Plasma sAPP total and sAPPα were determined in serum using the ELISA kit obtained from Immuno Biological Laboratories (IBL, Gumma, Japan). […]", "note": "Values joined by “and” are separate entries in the source; they are usually repeats but may differ in a detail not shown here. Equal entries are not always repeated."}
{"smiles": "CC(=O)NCCCS(=O)(=O)O.[Ca]", "note": "[acamprosate, Calcium Acetylhomotaurine]", "values": [{"measurement": "fractional change in sAPP (total)-CP", "setting": "individual patients 1-6, baseline to Week 12", "result": "−0.8279 and −0.3066 and −0.0102 and −0.1029 and −0.437 and −0.544"}, {"measurement": "mean sAPP total post-treatment", "setting": "pooled 15 participants (9 FXS, 6 idiopathic ASD), pre-treatment 32.6±38.3 ng/mL, p=0.01", "result": "21.4 ± 32.3", "unit": "ng/mL"}, {"measurement": "levels of both sAPP total and sAPPα, direction of change per sample", "setting": "pooled 15 subjects", "result": "reduced with treatment in every sample tested except in one subject with idiopathic ASD where sAPPα was unchanged"}, {"measurement": "mean sAPP total levels at endpoint", "setting": "six subjects of the 12-week trial, baseline 34.7 ng/mL, p=0.02", "result": 19.3, "unit": "ng/mL"}]}
